Data taken from patent US20200333324A1, “METHOD OF PREDICTING CLINICAL OUTCOME OF ANTICANCER AGENTS” (MITRA RXDX, INC., priority 2017, published 2020).

How the values were obtained:
Format in all cases: cell-based, human
HNSCC tumor tissue [1] = assay: IHC for CD8, PD-L1, PD-1 and FOXP3 positive cells in tumor microenvironment platform; conditions: T3; for number of PD-1^+ cells in the tumor microbed: vs IgG control
Protocol: (§1) The effect of Pembrolizumab and Nivolumab on CD8^+ T cell tumor infiltration was then evaluated. Tumor sections from the same patient cultured for 72 hours in the tumor microenvironment platform were treated with Pembrolizumab, Nivolumab, or IgG as control and stained for H&E, Ki67, Caspase 3, and CD8 at day 3 in culture (T3). Baseline staining was determined at TO. […] To further elucidate the effects of the anti-PD-1 antibodies, FACS analysis was performed on tumor tissue from patient 2941 and patient 2942 treated with either Pembrolizumab, Nivolumab, or IgG control. […] By contrast, there was no effect of either Pembrolizumab or Nivolumab on CD8^+ T cell infiltration for patient 2942, further highlighting the differential response between individuals to PD-1 blockade. CD8^+ T cell infiltration was evaluated in the tumor microenvironment platform with tumor tissue from the same patient, and comparisons for control vs Nivo, control vs Pembro, Nivo vs Pembro, and control vs Nivo vs Pembro for multiple patients are shown in FIG. 6 (each line represents results from the tumor microenvironment platform cultured with tumor tissue from a single individual).
The effect of Pembrolizumab and Nivolumab on the expression of immunoregulatory molecules, including PD-1 and FOXP3, in the tumor microenvironment platform tumor microbed was evaluated. Tumor sections from the same patient cultured for 3 days (72 hours) in the tumor microenvironment platform were treated with Pembrolizumab, Nivolumab, or IgG control and stained for CD8, FOXP3, and PD-1 at day 3 in culture (T3). Baseline staining was determined at TO. Results are shown in FIG. 7A for tumor sections from a predicted responder to Pembrolizumab or Nivolumab and FIG. 7B for a predicted non-responder to Pembrolizumab or Nivolumab, as characterized by M-score. There was in increase in the number of PD-1^+ cells in the tumor microbed for both Pembrolizumab and Nivolumab, which was to a greater degree in the case of Nivolumab, when compared to IgG control in the responder (FIG. 7A). There was no change for either Pembrolizumab and Nivolumab in the non-responder (FIG. 7B). The numbers of PD-L1^+ tumor cells, PD-1^+ T cells, FOXP3^+ T-regulatory cells, and CD8^+ T cells were evaluated using the tumor microenvironment platform with tumor tissue from the same patient in Nivolumab, Pembrolizumab, and control conditions, and are summarized in Table 3. Comparisons for control vs Nivo, control vs Pembro, Nivo vs Pembro, and control vs Nivo vs Pembro for multiple patients are shown in FIG. 8 (each line represents results from the tumor microenvironment platform cultured with tumor tissue from a single individual).

HNSCC tumor tissue [2] = assay: FACS analysis for CD3 and CD8 (CD8+ T cell infiltration) in tumor microenvironment platform; conditions: vs IgG control
Protocol: as §1

HNSCC tumor tissue [3] = assay: Granzyme B and Perforin secretion assays, HNSCC tumor sections in tumor microenvironment platform; conditions: 48 hours
Protocol: FIGS. 9A and 9B show quantification of results for Granzyme B and Perforin secretion assays for HNSCC tumor tissue cultured in the tumor microenvironment platform treated with Pembrolizumab, Nivolumab, or IgG control for 24 or 48 hours.
HNSCC tumor sections from the same patient cultured for 24 or 48 hours in the tumor microenvironment platform with Pembrolizumab, Nivolumab, or IgG as control were assayed for Granzyme B and Perforin secretion. Results are shown in FIG. 9A for the tumor microenvironment platform with tumor tissue from a predicted responder and FIG. 9B for the tumor microenvironment platform with tumor tissue from a predicted non-responder. After treatment with Pembrolizumab for 48 hours, there was an increase in both Granzyme B and Perforin secretion in the tumor microenvironment platform with tissue from the predicted responder compared to treatment with the control IgG. By contrast, at 48 hours in the tumor microenvironment platform with tissue from the predicted non-responder there was no increase in Granzyme B or Perforin secretion for treatment with either Pembrolizumab or Nivolumab.

[4] = predicted responder, compared to control IgG

Pembrolizumab
# cells/field PD-1^+ (HNSCC tumor tissue [1]; Patient ID 2916, control 0): 0 cells/field | # cells/field PD-L1^+ (HNSCC tumor tissue [1]; Patient ID 2916, control 1): 2 cells/field | # cells/field FOXP3^+ (HNSCC tumor tissue [1]; Patient ID 2916, control 3): 2 cells/field | # cells/field CD8^+ (HNSCC tumor tissue [1]; Patient ID 2916, control 20): 18 cells/field | # cells/field PD-1^+ (HNSCC tumor tissue [1]; Patient ID 2918, control 2): 0 cells/field | # cells/field FOXP3^+ (HNSCC tumor tissue [1]; Patient ID 2918, control 3): 3 cells/field | # cells/field CD8^+ (HNSCC tumor tissue [1]; Patient ID 2918, control 10): 14 cells/field | # cells/field PD-L1^+ (HNSCC tumor tissue [1]; Patient ID 2918, control 10): 10 cells/field | # cells/field PD-1^+ (HNSCC tumor tissue [1]; Patient ID 2926, control 0): 0 cells/field | # cells/field PD-L1^+ (HNSCC tumor tissue [1]; Patient ID 2926, control 3): 1 cells/field | # cells/field FOXP3^+ (HNSCC tumor tissue [1]; Patient ID 2926, control 4): 10 cells/field | # cells/field CD8^+ (HNSCC tumor tissue [1]; Patient ID 2926, control 25): 5 cells/field | # cells/field PD-1^+ (HNSCC tumor tissue [1]; Patient ID 2928, control 0): 0 cells/field | # cells/field PD-L1^+ (HNSCC tumor tissue [1]; Patient ID 2928, control 0): 1 cells/field | # cells/field CD8^+ (HNSCC tumor tissue [1]; Patient ID 2928, control 4): 1 cells/field | # cells/field FOXP3^+ (HNSCC tumor tissue [1]; Patient ID 2928, control 4): 1 cells/field | # cells/field CD8^+ (HNSCC tumor tissue [1]; Patient ID 2939, control 0): 5 cells/field | # cells/field PD-1^+ (HNSCC tumor tissue [1]; Patient ID 2939, control 0): 0 cells/field | # cells/field FOXP3^+ (HNSCC tumor tissue [1]; Patient ID 2939, control 1): 1 cells/field | # cells/field PD-L1^+ (HNSCC tumor tissue [1]; Patient ID 2939, control 10): 15 cells/field | # cells/field PD-1^+ (HNSCC tumor tissue [1]; Patient ID 2941, control 0): 1 cells/field | # cells/field FOXP3^+ (HNSCC tumor tissue [1]; Patient ID 2941, control 3): 4 cells/field | # cells/field PD-L1^+ (HNSCC tumor tissue [1]; Patient ID 2941, control 3): 6 cells/field | # cells/field CD8^+ (HNSCC tumor tissue [1]; Patient ID 2941, control 5): 7 cells/field | # cells/field PD-1^+ (HNSCC tumor tissue [1]; Patient ID 2942, control 0): 0 cells/field | # cells/field PD-L1^+ (HNSCC tumor tissue [1]; Patient ID 2942, control 0): 0 cells/field | # cells/field CD8^+ (HNSCC tumor tissue [1]; Patient ID 2942, control 3): 2 cells/field | # cells/field FOXP3^+ (HNSCC tumor tissue [1]; Patient ID 2942, control 3): 2 cells/field | # cells/field FOXP3^+ (HNSCC tumor tissue [1]; Patient ID 2948, control 1): 3 cells/field | # cells/field PD-1^+ (HNSCC tumor tissue [1]; Patient ID 2948, control 1): 0 cells/field | # cells/field PD-L1^+ (HNSCC tumor tissue [1]; Patient ID 2948, control 10): 1 cells/field | # cells/field CD8^+ (HNSCC tumor tissue [1]; Patient ID 2948, control 20): 25 cells/field | # cells/field PD-1^+ (HNSCC tumor tissue [1]; Patient ID 2949, control 1): 6 cells/field | # cells/field FOXP3^+ (HNSCC tumor tissue [1]; Patient ID 2949, control 5): 3 cells/field | # cells/field PD-L1^+ (HNSCC tumor tissue [1]; Patient ID 2949, control 20): 28 cells/field | # cells/field CD8^+ (HNSCC tumor tissue [1]; Patient ID 2949, control 50): 40 cells/field | # cells/field PD-1^+ (HNSCC tumor tissue [1]; Patient ID 2956, control 0): 0 cells/field | # cells/field CD8^+ (HNSCC tumor tissue [1]; Patient ID 2956, control 1): 1 cells/field | # cells/field PD-L1^+ (HNSCC tumor tissue [1]; Patient ID 2956, control 2): 0 cells/field | # cells/field FOXP3^+ (HNSCC tumor tissue [1]; Patient ID 2956, control 8): 1 cells/field | # cells/field PD-1^+ (HNSCC tumor tissue [1]; Patient ID 2963, control 0): 0 cells/field | # cells/field CD8^+ (HNSCC tumor tissue [1]; Patient ID 2963, control 6): 2 cells/field | # cells/field FOXP3^+ (HNSCC tumor tissue [1]; Patient ID 2963, control 10): 2 cells/field | # cells/field PD-L1^+ (HNSCC tumor tissue [1]; Patient ID 2963, control 12): 10 cells/field | # cells/field PD-1^+ (HNSCC tumor tissue [1]; Patient ID 2978, control 0): 0 cells/field | # cells/field FOXP3^+ (HNSCC tumor tissue [1]; Patient ID 2978, control 1): 2 cells/field | # cells/field PD-L1^+ (HNSCC tumor tissue [1]; Patient ID 2978, control 1): 1 cells/field | # cells/field CD8^+ (HNSCC tumor tissue [1]; Patient ID 2978, control 12): 22 cells/field | # cells/field PD-1^+ (HNSCC tumor tissue [1]; Patient ID 2979, control 0): 0 cells/field | # cells/field FOXP3^+ (HNSCC tumor tissue [1]; Patient ID 2979, control 2): 3 cells/field | # cells/field PD-L1^+ (HNSCC tumor tissue [1]; Patient ID 2979, control 5): 8 cells/field | # cells/field CD8^+ (HNSCC tumor tissue [1]; Patient ID 2979, control 25): 10 cells/field | # cells/field PD-1^+ (HNSCC tumor tissue [1]; Patient ID 2980, control 0): 0 cells/field | # cells/field FOXP3^+ (HNSCC tumor tissue [1]; Patient ID 2980, control 1): 2 cells/field | # cells/field PD-L1^+ (HNSCC tumor tissue [1]; Patient ID 2980, control 8): 2 cells/field | # cells/field CD8^+ (HNSCC tumor tissue [1]; Patient ID 2980, control 30): 8 cells/field | # cells/field FOXP3^+ (HNSCC tumor tissue [1]; Patient ID 2981, control 0): 1 cells/field | # cells/field PD-1^+ (HNSCC tumor tissue [1]; Patient ID 2981, control 0): 0 cells/field | # cells/field PD-L1^+ (HNSCC tumor tissue [1]; Patient ID 2981, control 0): 0 cells/field | # cells/field CD8^+ (HNSCC tumor tissue [1]; Patient ID 2981, control 1): 12 cells/field | number of PD-1^+ cells in the tumor microbed (HNSCC tumor tissue [1]; predicted non-responder): no change | number of PD-1^+ cells in the tumor microbed (HNSCC tumor tissue [1]; predicted responder, to a greater degree in the case of Nivolumab): increase | CD8^+ T cell infiltration (FACS) (HNSCC tumor tissue [2]; patient 2941): but not Pembrolizumab | CD8^+ T cell infiltration (FACS) (HNSCC tumor tissue [2]; patient 2942): no effect | Granzyme B secretion (HNSCC tumor tissue [3]; predicted non-responder): no increase | Perforin secretion (HNSCC tumor tissue [3]; predicted non-responder): no increase | Granzyme B secretion (HNSCC tumor tissue [3]; [4]): increase | Perforin secretion (HNSCC tumor tissue [3]; [4]): increase
